This is an account of results in PubChem BioAssay (NCI).

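48-hour exposure; five concentrations; linearly interpolated endpoints. GI50 = concentration required for 50% inhibition of growth. TGI is the concentration that stops growth completely.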

Holding throughout (test): NCI anticancer screen, dose series, 48 h
Experiment [1] relates to UACC-257 melanoma.
Experiment [2] deals with NCI/ADR-RES ovarian.
For experiment [3], the system named is T-47D breast.
Experiment [4] concerns SNB-75 CNS.
In experiment [5] the test system is UACC-62 melanoma.
In experiment [6] the test system is M14 melanoma.
The subject of experiment [7] is OVCAR-8 ovarian.
The test system of experiment [8] is HOP-92 NSCLC.
Experiment [9] concerns K-562 leukemia.
The test system of experiment [10] is SW-620 colon.

With `CNC(=S)N/N=C/CSC/C=N/NC(=S)NC`, the GI50 is greater than 100 µM in experiment [1]; greater than 100 µM in [2]; 0.667 µM in experiment [3]; greater than 100 µM in experiment [4]; greater than 100 µM in experiment [5]; greater than 100 µM in experiment [6]. The GI50 was greater than 100 µM in [7], greater than 100 µM in experiment [8], 3.08 µM in [9] and 41.1 µM in experiment [10]. The TGI in experiment [1], in experiment [2], in [3], in experiment [4], in experiment [5] and in experiment [6] was greater than 100 µM each time. The TGI in experiment [7], in experiment [8], in experiment [9] and in [10] was greater than 100 µM in each case.
Turning to `CC(=O)Nc1ccc(S(=O)(=O)N2C(=O)CCC2C(=O)Nc2ccccc2)cc1` (stereo not given), the GI50 was 1.34 µM in [1]; 1.61 µM in experiment [2]; 0.283 µM in [3]; 1.63 µM in experiment [4]; 0.0523 µM in experiment [5]; 0.265 µM in experiment [6]. In addition, the GI50 in [7] was 2.23 µM; in experiment [8], 1.48 µM; in experiment [9] it was 0.258 µM; in experiment [10] it was 0.405 µM. The TGI is 17.2 µM in [1]; 29.1 µM in experiment [2]; 14.6 µM in experiment [3]; 6.86 µM in [4]; 10.3 µM in experiment [5]; 12.5 µM in [6]. The TGI is 19 µM in experiment [7], 5.41 µM in [8], 10.2 µM in [9] and 16.7 µM in experiment [10].
For `Nc1nc(-c2ccccn2)c(-c2ccc3ncccc3n2)s1`, the GI50 in [1], in experiment [2], in [3], in [4], in [5] and in experiment [6] was greater than 25 µM each time. The GI50 is greater than 25 µM in experiment [7], 13.3 µM in experiment [8], greater than 25 µM in experiment [9] and greater than 25 µM in experiment [10]. In addition, the TGI in [1], in experiment [2], in [3], in experiment [4], in [5] and in experiment [6] was greater than 25 µM throughout. The TGI in [7], in experiment [8], in [9] and in experiment [10] was greater than 25 µM in each case.
Consider `CC(C)OC(=O)OCOP(=O)(OCOC(=O)OC(C)C)C1CCCN(O)C1=O` (stereo not given), for which the GI50 in [1] was 49.1 µM; in experiment [2] it was 2.6 µM; in [3], 1.98 µM; in [4], 5.46 µM; in experiment [5] it was 0.704 µM; in [6] it was 2.67 µM. Also, the GI50 in experiment [7] was 0.619 µM; in experiment [8], 0.566 µM; in experiment [9], 0.81 µM; in experiment [10], 1.37 µM. Also, the TGI in experiment [1] is greater than 100 µM; in experiment [2], greater than 100 µM; in experiment [3], greater than 100 µM; in experiment [4], greater than 100 µM; in experiment [5] it was 3.29 µM; in [6], greater than 100 µM. The TGI in experiment [7] was greater than 100 µM; in experiment [8], 7.91 µM; in [9], greater than 100 µM; in [10], greater than 100 µM.
As for `CCN(CC)c1ccc(C=C2C(=O)NC(=S)NC2=O)cc1`, the GI50 in experiment [1] was 6.46 µM; in experiment [2], 3.39 µM; in experiment [3], 9.62 µM; in experiment [4] it was 2.66 µM; in experiment [5], 2.26 µM; in [6], 6.6 µM. For the same compound, the GI50 in experiment [7] is 3.83 µM; in experiment [8], 2.6 µM; in [9], 3.1 µM; in [10], 1.91 µM. Further, the TGI in experiment [1] is 19.4 µM; in experiment [2], 12.2 µM; in experiment [3] it was 25.7 µM; in experiment [4] it was 8.75 µM; in [5], 6.72 µM; in experiment [6], 21 µM. Further, the TGI in experiment [7] worked out at 13.4 µM; in experiment [8] it was 7.78 µM; in experiment [9], 10.7 µM; in experiment [10] it was 4.32 µM.
Consider `NC1=Nc2cc(OCCCCN3Cc4ccccc4C3)c(OCC3CC3)cc2C12CCCC2`, for which the GI50 in [1] was 1.62 µM; in experiment [2] it was 1.73 µM; in experiment [3] it was 1.78 µM; in experiment [4], 1.19 µM; in experiment [5], 1.69 µM; in experiment [6] it was 1.77 µM. Also, the GI50 in [7] is 1.8 µM; in experiment [8], 0.873 µM; in experiment [9] it was 0.398 µM; in experiment [10], 1.7 µM. For the same compound, the TGI stood at 3.48 µM in experiment [1]; 3.41 µM in experiment [2]; 4.29 µM in experiment [3]; 2.48 µM in [4]; 3.11 µM in [5]; 3.51 µM in experiment [6]. The TGI in experiment [7] amounted to 4.02 µM; in experiment [8], 2.71 µM; in experiment [9] it was 1.73 µM; in [10] it was 3.48 µM.
Take `CC1(C)CC[C@]2(C(=O)O)CC[C@]3(C)C(=CC[C@@H]4[C@@]5(C)C/C(=C/c6cccnc6)[C@H](O)C(C)(C)[C@@H]5CC[C@]43C)[C@@H]2C1`: the GI50 is 24.9 µM in experiment [1]; 9.82 µM in experiment [2]; 9.89 µM in experiment [3]; 38.6 µM in experiment [4]; 4.72 µM in [5]; 16.7 µM in [6]. Besides, the GI50 is 9.47 µM in [7], 2.22 µM in [8], 3.1 µM in experiment [9] and 5.34 µM in [10]. In addition, the TGI in experiment [1] was 92.8 µM; in experiment [2] it was greater than 100 µM; in experiment [3] it was greater than 100 µM; in experiment [4], greater than 100 µM; in experiment [5], 36.4 µM; in [6], 51.3 µM. For the same compound, the TGI in experiment [7] is greater than 100 µM; in [8] it was 10.1 µM; in [9], greater than 100 µM; in experiment [10] it was greater than 100 µM.
Consider `N#CSc1c[nH]c2cccc(/C=C/C(=O)/C=C(O)/C=C/c3cccc4[nH]cc(SC#N)c34)c12`, for which the GI50 in [1] is 0.944 µM; in experiment [2], 2.72 µM; in experiment [3], 0.173 µM; in [4] it was 0.67 µM; in experiment [5], 0.4 µM; in experiment [6], 0.437 µM. Moreover, the GI50 in experiment [7] was 0.369 µM; in experiment [8], 0.51 µM; in experiment [9] it was 0.148 µM; in experiment [10], 0.151 µM. Further, the TGI in [1] is 3.38 µM; in [2], greater than 33.3 µM; in experiment [3], 2.27 µM; in experiment [4], 2.68 µM; in [5], 1.63 µM; in [6] it was 1.11 µM. In addition, the TGI in experiment [7] was greater than 17.5 µM; in experiment [8], 1.27 µM; in [9], greater than 33.3 µM; in [10], 0.555 µM.
As for `COc1ccc2c(c1)OCC1c3cc(OC)ccc3OC21` (stereo not given), the GI50 in experiment [1] is greater than 100 µM; in [2], 32 µM; in [3], 35.4 µM; in experiment [4] it was 47.3 µM; in experiment [5], 51 µM; in [6], 39 µM. Moreover, the GI50 in experiment [7] is 80.3 µM; in experiment [8], 60.3 µM; in [9], 56.7 µM; in [10], greater than 100 µM. Moreover, the TGI in experiment [1], in experiment [2], in experiment [3], in experiment [4], in experiment [5] and in experiment [6] was greater than 100 µM each time. The TGI in experiment [7], in [8], in experiment [9] and in experiment [10] was greater than 100 µM throughout.
As to `CC(C)c1c(C(=O)Nc2ccccc2)c(-c2ccccc2)c(-c2ccc(F)cc2)n1CC[C@@H](O)C[C@@H](O)CC(=O)O`, the GI50 in [1] was 41.5 µM; in experiment [2], 40.8 µM; in experiment [3], 32.1 µM; in [4] it was 2.09 µM; in experiment [5] it was 6.59 µM; in experiment [6], 19.1 µM. Besides, the GI50 in experiment [7] was 20.4 µM; in experiment [8], 0.211 µM; in experiment [9] it was 31.2 µM; in [10] it was 22.2 µM. For the same compound, the TGI is greater than 100 µM in experiment [1]; greater than 100 µM in experiment [2]; greater than 100 µM in experiment [3]; greater than 26.5 µM in [4]; 51.5 µM in experiment [5]; greater than 100 µM in [6]. Besides, the TGI was greater than 100 µM in [7], 2.14 µM in [8], greater than 100 µM in experiment [9] and greater than 100 µM in [10].
Regarding `O=c1c2cc(F)ccc2sc2c(NCCCNCCO)nc3ccc(F)cc3c12`, the GI50 was 1.98 µM in experiment [1]; 1.67 µM in experiment [2]; 1.94 µM in experiment [3]; 1.51 µM in [4]; 1.72 µM in [5]; 1.85 µM in [6]. For the same compound, the GI50 in experiment [7] is 2.09 µM; in experiment [8] it was 1.31 µM; in experiment [9], 2.34 µM; in experiment [10], 1.73 µM. For the same compound, the TGI in [1] came out at 4.03 µM; in [2] it was 3.22 µM; in experiment [3], 4.48 µM; in experiment [4] it was 3.27 µM; in experiment [5], 3.25 µM; in [6], 3.67 µM. Further, the TGI was 4.75 µM in experiment [7], 5.2 µM in experiment [8], 6.68 µM in experiment [9] and 3.48 µM in experiment [10].
As for `Nc1ncnc2c1ncn2C1SC(CO)C(O)C1O` (stereo not given), the GI50 in experiment [1] was greater than 100 µM; in experiment [2], 13.5 µM; in [3] it was 5.24 µM; in experiment [4] it was 16.8 µM; in experiment [5], greater than 100 µM; in experiment [6], 21 µM. For the same compound, the GI50 in experiment [7] is 4 µM; in experiment [8] it was 13.6 µM; in experiment [9], 16.9 µM; in experiment [10] it was 17.5 µM. Further, the TGI is greater than 100 µM in experiment [1]; 52.1 µM in experiment [2]; 26 µM in experiment [3]; 46.3 µM in experiment [4]; greater than 100 µM in experiment [5]; 55.6 µM in experiment [6]. Further, the TGI in [7] was 23.6 µM; in experiment [8], 52.4 µM; in experiment [9], greater than 100 µM; in experiment [10], 77.2 µM.
Regarding `CC1(C)CCC(c2ccc(Cl)cc2)=C(CN2CCN(c3ccc(C(=O)NS(=O)(=O)c4ccc(N[C@H](CCN5CCOCC5)CSc5ccccc5)c(S(=O)(=O)C(F)(F)F)c4)cc3)CC2)C1`, the GI50 in experiment [1] is 1.63 µM; in [2] it was 3.2 µM; in [3], 2.05 µM; in experiment [4], 2.05 µM; in experiment [5], 1.43 µM; in experiment [6], 1.83 µM. In addition, the GI50 in experiment [7] is 2.19 µM; in experiment [8], 0.0455 µM; in experiment [9] it was 2.45 µM; in experiment [10], 1.79 µM. Besides, the TGI in experiment [1] is 3.4 µM; in experiment [2], 11.7 µM; in experiment [3], 5.25 µM; in experiment [4], 4.16 µM; in [5], 2.92 µM; in experiment [6] it was 3.38 µM. The TGI in experiment [7] came out at 5.18 µM; in experiment [8], 0.245 µM; in [9], 8.02 µM; in [10] it was 3.8 µM.
With `CCn1nc(C#Cc2c(C)ccc3c(Nc4ccc(Cl)cc4)nccc23)c2c(N)ncnc21`, the GI50 in experiment [1] was 3.54 µM; in experiment [2] it was 3.1 µM; in experiment [3] it was 5.48 µM; in experiment [4], 3.12 µM; in experiment [5], 1.6 µM; in experiment [6], 2.89 µM. Moreover, the GI50 in experiment [7] is 4.35 µM; in [8], 1.79 µM; in [9], 2.18 µM; in [10] it was 2.99 µM. For the same compound, the TGI is 38.7 µM in experiment [1]; 10.7 µM in [2]; greater than 100 µM in experiment [3]; 44 µM in experiment [4]; 9.1 µM in experiment [5]; greater than 100 µM in [6]. In addition, the TGI is greater than 100 µM in experiment [7], 9.06 µM in experiment [8], greater than 100 µM in experiment [9] and greater than 100 µM in experiment [10].
